From the supplement of paper PMC10307832

Key:
Experiment in all cases: relative viability (nuclei count vs DMSO), 5 days (fraction); higher = more cells survive
R406 + Alpelisib = compound: COc1cc(Nc2ncc(F)c(Nc3ccc4c(n3)NC(=O)C(C)(C)O4)n2)cc(OC)c1OC [R406] + Cc1nc(NC(=O)N2CCC[C@H]2C(N)=O)sc1-c1ccnc(C(C)(C)C(F)(F)F)c1 [Alpelisib] (partner 2 µM)
How it was run: (§1)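 One day after seeding in 1536-well plates, lung cancer cell lines were dosed by pin tool. Dosing was either single-drug or a fixed anchor-drug dose plus five library-drug doses (not always all listed) in √10 steps. After 5 days, nuclei were stained in one fix-and-stain step and counted on 4× images, and relative viability is the nuclei count of treated wells over that of vehicle wells, given as the median of duplicate plates.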

R406 + Phenformin = compound: COc1cc(Nc2ncc(F)c(Nc3ccc4c(n3)NC(=O)C(C)(C)O4)n2)cc(OC)c1OC [R406] + N=C(N)NC(=N)NCCc1ccccc1 [Phenformin] (partner 250 µM)
How it was run: as §1

Daporinad + Alpelisib = compound: O=C(/C=C/c1cccnc1)NCCCCC1CCN(C(=O)c2ccccc2)CC1 [Daporinad] + Cc1nc(NC(=O)N2CCC[C@H]2C(N)=O)sc1-c1ccnc(C(C)(C)C(F)(F)F)c1 [Alpelisib] (partner 2 µM)
How it was run: as §1

Daporinad + Pemetrexed = compound: O=C(/C=C/c1cccnc1)NCCCCC1CCN(C(=O)c2ccccc2)CC1 [Daporinad] + Nc1nc2[nH]cc(CCc3ccc(C(=O)N[C@@H](CCC(=O)O)C(=O)O)cc3)c2c(=O)[nH]1 [Pemetrexed] (partner 0.2 µM)
How it was run: as §1

UMC-11
relative viability (R406 + Alpelisib; first compound 0.08 µM): 0.969 | relative viability (R406 + Alpelisib; first compound 0.253 µM): 1.06 | relative viability (R406 + Alpelisib; first compound 0.8 µM): 1.15 | relative viability (R406 + Alpelisib; first compound 2.53 µM): 0.89 | relative viability (R406 + Alpelisib; first compound 8 µM): 0.386 | relative viability (R406 + Phenformin; first compound 0.08 µM): 0.356 | relative viability (R406 + Phenformin; first compound 0.253 µM): 0.35 | relative viability (R406 + Phenformin; first compound 0.8 µM): 0.368 | relative viability (R406 + Phenformin; first compound 2.53 µM): 0.28 | relative viability (R406 + Phenformin; first compound 8 µM): 0.19 | relative viability (Daporinad + Alpelisib; first compound 0.0005 µM): 0.915 | relative viability (Daporinad + Alpelisib; first compound 0.001581 µM): 0.979 | relative viability (Daporinad + Alpelisib; first compound 0.005 µM): 1.07 | relative viability (Daporinad + Alpelisib; first compound 0.01581 µM): 1.1 | relative viability (Daporinad + Pemetrexed; first compound 0.0005 µM): 0.746 | relative viability (Daporinad + Pemetrexed; first compound 0.001581 µM): 0.83 | relative viability (Daporinad + Pemetrexed; first compound 0.005 µM): 0.847 | relative viability (Daporinad + Pemetrexed; first compound 0.01581 µM): 0.773
